Assay results reported in ChEMBL document CHEMBL5579824, “Novel Hsp90-Targeting PROTACs: Enhanced synergy with cisplatin in combination therapy of cervical cancer” (Eur J Med Chem, 2024).
The source made the active and inactive calls. The calls are words filed in the database; no cut-off is given here.

Key:
[1] = target: T1, Protein cereblon/Heat shock protein HSP 90-alpha/Heat shock protein HSP 90-beta (Homo sapiens) (UniProt P07900+P08238+Q96SW2); test: Protac activity at CRBN/Hsp90 in human SiHa cells assessed as decrease in HER2 protein expression level at 0.05 uM incubated for 10 hrs by Western blot analysis; assay type: cell-based
[2] = target: T1, Protein cereblon/Heat shock protein HSP 90-alpha/Heat shock protein HSP 90-beta (Homo sapiens); test: Protac activity at CRBN/Hsp90 in human SiHa cells assessed as induction of Hsp90 degradation at 1 uM incubated for 8 to 10 hrs by Western blot analysis; assay type: cell-based; conditions: time 8-10 hrs
[3] = target: T1, Protein cereblon/Heat shock protein HSP 90-alpha/Heat shock protein HSP 90-beta (Homo sapiens); test: Protac activity at CRBN/Hsp90 in human SiHa cells assessed as induction of Hsp90 degradation at 1 uM incubated for 36 hrs by Western blot analysis; assay type: cell-based
[4] = target: T1, Protein cereblon/Heat shock protein HSP 90-alpha/Heat shock protein HSP 90-beta (Homo sapiens); test: Protac activity at CRBN/Hsp90 in human Ca-Ski cells assessed as induction of Hsp90 degradation at 0.05 uM incubated for 10 hrs by Western blot analysis; assay type: cell-based
[5] = target: T1, Protein cereblon/Heat shock protein HSP 90-alpha/Heat shock protein HSP 90-beta (Homo sapiens); test: Protac activity at CRBN/Hsp90 in human SiHa cells assessed as induction of Hsp90 degradation at 0.05 uM incubated for 2 hrs in presence of MG-132 by Western blot analysis; assay type: cell-based
[6] = target: T1, Protein cereblon/Heat shock protein HSP 90-alpha/Heat shock protein HSP 90-beta (Homo sapiens); test: Protac activity at CRBN/Hsp90 in human SiHa cells assessed as induction of Hsp90 degradation at 0.05 uM incubated for 2 hrs in presence of bortezomib by Western blot analysis; assay type: cell-based
[7] = target: T1, Protein cereblon/Heat shock protein HSP 90-alpha/Heat shock protein HSP 90-beta (Homo sapiens); test: Protac activity at CRBN/Hsp90 in human SiHa cells assessed as induction of Hsp90 degradation at 0.05 uM incubated for 2 hrs in presence of lenalidomide by Western blot analysis; assay type: cell-based
SiHa [8] = test: Antiproliferative activity against human SiHa cells assessed as inhibition of clone formation ability incubated for 14 days by crystal violet staining based microscopic analysis; assay type: functional, cell-based; conditions: dose 0.01-1 µM, time 14.0 day
SiHa [9] = test: Induction of apoptosis in human SiHa cells assessed as necrotic cells at 10 uM incubated after 48 hrs by annexin V-FITC/PI staining based flow cytometry (reference value: 0.08 %); assay type: functional
SiHa [10] = test: Induction of apoptosis in human SiHa cells assessed as viable cells at 2.5 uM incubated after 48 hrs by annexin V-FITC/PI staining based flow cytometry (reference value: 90.4 %); assay type: functional; conditions: read-out: Activity
SiHa [11] = test: Induction of apoptosis in human SiHa cells assessed as necrotic cells at 2.5 uM incubated after 48 hrs by annexin V-FITC/PI staining based flow cytometry (reference value: 0.08 %); assay type: functional
SiHa [12] = test: Induction of apoptosis in human SiHa cells assessed as viable cells at 0.05 uM incubated after 48 hrs by annexin V-FITC/PI staining based flow cytometry (reference value: 90.4 %); assay type: functional; conditions: read-out: Activity
SiHa [13] = test: Induction of apoptosis in human SiHa cells assessed as necrotic cells at 0.05 uM incubated after 48 hrs by annexin V-FITC/PI staining based flow cytometry (reference value: 0.08 %); assay type: functional
SiHa [14] = test: Induction of cell cycle arrest in human SiHa cells assessed as accumulation of cells at G1 pahse at 10 uM incubated after 48 hrs by PI staining based flow cytometry (reference value: 83.90 %); assay type: functional
SiHa [15] = test: Induction of cell cycle arrest in human SiHa cells assessed as accumulation of cells at S pahse at 2.5 uM incubated after 48 hrs by PI staining based flow cytometry (reference value: 8.51 %); assay type: functional
SiHa [16] = test: Induction of cell cycle arrest in human SiHa cells assessed as accumulation of cells at G2/M pahse at 2.5 uM incubated after 48 hrs by PI staining based flow cytometry (reference value: 7.37 %); assay type: functional
SiHa [17] = test: Induction of cell cycle arrest in human SiHa cells assessed as accumulation of cells at G1 pahse at 0.05 uM incubated after 48 hrs by PI staining based flow cytometry (reference value: 83.90 %); assay type: functional
SiHa [18] = test: Synergistic antiproliferative activity against human SiHa cells assessed as combination index at 0.05 uM incubated for 72 hrs in presence of 10 uM cisplatin by CCK-8 assay; assay type: functional
SiHa [19] = test: Synergistic antiproliferative activity against human SiHa cells assessed as combination index at 0.05 uM incubated for 72 hrs in presence of 0.1 uM cisplatin by CCK-8 assay; assay type: functional
SiHa [20] = test: Synergistic antiproliferative activity against human SiHa cells assessed as combination index at 0.05 uM incubated for 72 hrs in presence of 0.01 uM cisplatin by CCK-8 assay; assay type: functional
SiHa [21] = test: Synergistic antiproliferative activity against human SiHa cells assessed as combination index at 0.1 uM incubated for 72 hrs in presence of 10 uM cisplatin by CCK-8 assay; assay type: functional
SiHa [22] = test: Synergistic antiproliferative activity against human SiHa cells assessed as combination index at 0.1 uM incubated for 72 hrs in presence of 3.16 uM cisplatin by CCK-8 assay; assay type: functional
SiHa [23] = test: Synergistic antiproliferative activity against human SiHa cells assessed as combination index at 0.1 uM incubated for 72 hrs in presence of 0.1 uM cisplatin by CCK-8 assay; assay type: functional
SiHa [24] = test: Synergistic antiproliferative activity against human SiHa cells assessed as combination index at 0.1 uM incubated for 72 hrs in presence of 0.03 uM cisplatin by CCK-8 assay; assay type: functional
SiHa [25] = test: Synergistic antiproliferative activity against human SiHa cells assessed as combination index at 0.1 uM incubated for 72 hrs in presence of 0.01 uM cisplatin by CCK-8 assay; assay type: functional
SiHa [26] = test: Synergistic antiproliferative activity against human SiHa cells assessed as combination index at 0.5 uM incubated for 72 hrs in presence of 31.62 uM cisplatin by CCK-8 assay; assay type: functional
SiHa [27] = test: Synergistic antiproliferative activity against human SiHa cells assessed as combination index at 0.5 uM incubated for 72 hrs in presence of 0.03 uM cisplatin by CCK-8 assay; assay type: functional
SiHa [28] = test: Synergistic antiproliferative activity against human SiHa cells assessed as combination index at 0.75 uM incubated for 72 hrs in presence of 0.32 uM cisplatin by CCK-8 assay; assay type: functional
SiHa [29] = test: Synergistic antiproliferative activity against human SiHa cells assessed as combination index at 0.75 uM incubated for 72 hrs in presence of 0.03 uM cisplatin by CCK-8 assay; assay type: functional
SiHa [30] = test: Synergistic antiproliferative activity against human SiHa cells assessed as combination index at 5 uM incubated for 72 hrs in presence of 0.01 uM cisplatin by CCK-8 assay; assay type: functional
SiHa [31] = test: Synergistic antiproliferative activity against human SiHa cells assessed as combination index at 10 uM incubated for 72 hrs in presence of 31.62 uM cisplatin by CCK-8 assay; assay type: functional
SiHa [32] = test: Synergistic antiproliferative activity against human SiHa cells assessed as combination index at 10 uM incubated for 72 hrs in presence of 10 uM cisplatin by CCK-8 assay; assay type: functional
SiHa [33] = test: Synergistic antiproliferative activity against human SiHa cells assessed as combination index at 10 uM incubated for 72 hrs in presence of 0.32 uM cisplatin by CCK-8 assay; assay type: functional
SiHa [34] = test: Synergistic antiproliferative activity against human SiHa cells assessed as combination index at 10 uM incubated for 72 hrs in presence of 0.1 uM cisplatin by CCK-8 assay; assay type: functional

Structure (SMILES): CC1(C)CC(=O)c2c(C(F)(F)F)nn(-c3ccc(C(N)=O)c(N[C@H]4CC[C@H](OC(=O)CNC(=O)CCCCCCCNc5cccc6c5CN(C5CCC(=O)NC5=O)C6=O)CC4)c3)c2C1 (some centres undefined)
- Activity [1]: Active
- Activity [2]: Active
- Activity [3]: inactive
- Activity [4]: Active
- Activity [5]: inactive
- Activity [6]: inactive
- Activity [7]: inactive
- inhibition (SiHa [8]): Dose-Dependent Effect
- Activity (SiHa [9]): 0.27%
- viability at 2.5 µM (SiHa [10]): 55.3%
- Activity (SiHa [11]): 0.68%
- viability at 0.05 µM (SiHa [12]): 90.1%
- Activity (SiHa [13]): 0.1%
- Activity (SiHa [14]): 62.26%
- Activity (SiHa [15]): 21.18%
- Activity (SiHa [16]): 25.47%
- Activity (SiHa [17]): 78.92%
- CI (SiHa [18]): 1.26
- CI (SiHa [19]): 0.36
- CI (SiHa [20]): 1.83
- CI (SiHa [21]): 0.43
- CI (SiHa [22]): 1.04
- CI (SiHa [23]): 0.49
- CI (SiHa [24]): 0.49
- CI (SiHa [25]): 3.04
- CI (SiHa [26]): 0.26
- CI (SiHa [27]): 0.14
- CI (SiHa [28]): 0.17
- CI (SiHa [29]): 0.19
- CI (SiHa [30]): 1.02
- CI (SiHa [31]): 0.97
- CI (SiHa [32]): 1.1
- CI (SiHa [33]): 1.89
- CI (SiHa [34]): 2.06
